Results: US8143243B2, “Compounds for the treatment of hepatitis C” (Bristol-Myers Squibb Company, priority 2007, dated 2012)
Where two headings read alike, the source gives them in different places.

Tests used:
[1] = system: HCV replicon cells; assay: HCV replicon FRET / luciferase assay; format: cell-based
Method in brief: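 Trypsinized replicon cells were seeded with compound titrations and incubated at 37 °C for various times. Alamar blue was added to gauge toxicity. Plates were then rinsed and either lysed with FRET peptide reagent for kinetic fluorescence reading or switched to phenol red-free DMEM for luciferase measurement.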

[2] = target: T1, HCV NS5B (Hepatitis C virus genotype 1b, UniProt Q9WMX2); assay: HCV NS5B RdRp enzyme assay (standard / modified); format: biochemical
T1 construct: The protein was expressed with an 18 amino acid C-terminal truncation to enhance the solubility; made in house; host or cells: E. coli BL21 (DE3)
Method in brief: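 NS5B genotype 1b, 18-aa C-terminal truncation, E. coli-expressed; polyA template with biotinylated oligo-dT12 primer, 3H-UTP 0.29 μM, 30° C, SPA read-out in 20 mM Hepes pH 7.5, 2% DMSO. Standard: 28 nM enzyme, 6 nM template, 180 nM primer, 60 min; modified: 14 nM enzyme, 0.2 nM template, 20 nM bead-precaptured primer, 4 h. IC50 from seven concentrations.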

[3] = Hepatitis C virus, HCV replicon cells, FRET or luciferase readout, read-out: EC50
[4] = HCV RdRp genotype 1b enzyme, read-out: IC50

T1 sequence (Q9WMX2 2420-2992): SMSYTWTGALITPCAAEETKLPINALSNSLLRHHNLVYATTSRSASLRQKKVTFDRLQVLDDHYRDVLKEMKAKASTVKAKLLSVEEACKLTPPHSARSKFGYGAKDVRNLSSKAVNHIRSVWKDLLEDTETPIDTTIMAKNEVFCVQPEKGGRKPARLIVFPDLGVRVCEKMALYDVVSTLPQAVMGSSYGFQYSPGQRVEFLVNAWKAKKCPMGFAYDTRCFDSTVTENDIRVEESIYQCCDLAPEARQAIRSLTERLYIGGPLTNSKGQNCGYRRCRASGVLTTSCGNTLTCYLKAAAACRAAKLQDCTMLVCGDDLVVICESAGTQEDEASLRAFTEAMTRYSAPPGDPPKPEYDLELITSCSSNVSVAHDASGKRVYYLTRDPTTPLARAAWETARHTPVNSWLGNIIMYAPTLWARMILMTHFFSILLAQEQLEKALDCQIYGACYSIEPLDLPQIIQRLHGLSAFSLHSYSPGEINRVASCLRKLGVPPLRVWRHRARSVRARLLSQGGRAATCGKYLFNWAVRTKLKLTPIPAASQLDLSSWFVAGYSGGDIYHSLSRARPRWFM

Row | Compound | EC50 [1, 3] [nM] | IC50 [2, 4] [nM] | EC50 ([1]; Hepatitis C virus) [nM] | IC50 [2] [nM] | EC50 ([1]; HCV replicon cells, FRET or luciferase readout, read-out: EC50) [nM]
1 | COc1ccc2c(c1)C=C(c1c(C(=O)N3CCOCC3)cnn1C1CC1)Cn1c-2c(C2CCCCC2)c2ccc(C(=O)NS(=O)(=O)C(C)C)cc21 | 1 to 500 | 1 to 500 |  |  | 
2 | COc1ccc2c(c1)C=C(c1c(C(=O)N3C4COCC3COC4)cnn1C)Cn1c-2c(C2CCCCC2)c2ccc(C(=O)NS(=O)(=O)C(C)C)cc21 |  |  | 1 to 500 | 1 to 500 | 
3 | COc1ccc2c(c1)C=C(c1sccc1C(=O)O)Cn1c-2c(C2CCCCC2)c2ccc(C(=O)NS(=O)(=O)C(C)C)cc21 | > 40 | 1 to 500 |  |  | 
4 | COc1ccc2c(c1)C=C(c1c(C(=O)N3CCC(N4CCCC4)CC3)cnn1C)Cn1c-2c(C2CCCCC2)c2ccc(C(=O)NS(=O)(=O)C(C)C)cc21 | 1 to 500 | 1 to 500 |  |  | 
5 | COc1ccc2c(c1)C=C(c1c(C(=O)N3C4C=C(C)CC3CC4)cnn1C(C)C)Cn1c-2c(C2CCCCC2)c2ccc(C(=O)NS(=O)(=O)CC(C)C)cc21 (stereo not shown) |  |  | 1 to 500 | 1 to 500 | 
6 | CCn1ncc(C(=O)N2CCO[C@@H](COC)C2)c1C1=Cc2cc(OC)ccc2-c2c(C3CCCCC3)c3ccc(C(=O)NS(=O)(=O)C(C)C)cc3n2C1 | 1 to 500 | 1 to 500 |  |  | 
7 | COc1ccc2c(c1)C=C(c1c(C(=O)N3C[C@@H](C)N(C)[C@@H](C)C3)cnn1C(C)(C)C)Cn1c-2c(C2CCCCC2)c2ccc(C(=O)NS(=O)(=O)C(C)C)cc21 | 1 to 500 | 1 to 500 |  |  | 
8 | CCN1C[C@@H]2C[C@H]1CN2C(=O)c1c(C)nn(C(C)C)c1C1=Cc2cc(OC)ccc2-c2c(C3CCCCC3)c3ccc(C(=O)NS(=O)(=O)C(C)C)cc3n2C1 | 1 to 500 | 1 to 500 |  |  | 
9 | COc1ccc2c(c1)C=C(c1c(C(=O)N3CC4CCC(C3)O4)cnn1C)Cn1c-2c(C2CCCCC2)c2ccc(C(=O)NS(=O)(=O)C(C)C)cc21 | 1 to 500 | < 20 |  |  | 
10 | COc1ccc2c(c1)C=C(c1c(C(=O)N3CC4CCC(C3)O4)c(C(F)(F)F)nn1C)Cn1c-2c(C2CCCCC2)c2ccc(C(=O)NS(=O)(=O)C(C)C)cc21 | 1 to 500 | 1 to 500 |  |  | 
11 | COc1ccc2c(c1)C=C(c1c(C(=O)N3[C@@H]4CC[C@H]3CN(C)C4)cnn1C)Cn1c-2c(C2CCCCC2)c2ccc(C(=O)NS(=O)(=O)N3CCOCC3)cc21 |  |  | 1 to 500 | 1 to 500 | 
12 | COc1ccc2c(c1)C=C(c1c(C(=O)N3C[C@@H](C)N(C)[C@@H](C)C3)cnn1CC(F)(F)F)Cn1c-2c(C2CCCCC2)c2ccc(C(=O)NS(=O)(=O)C(C)C)cc21 | 1 to 500 | 1 to 500 |  |  | 
13 | COc1ccc2c(c1)C=C(c1c(C(=O)N3CCOCC3)cnn1CC(F)(F)F)Cn1c-2c(C2CCCCC2)c2ccc(C(=O)NS(=O)(=O)C(C)C)cc21 | 1 to 500 | 1 to 500 |  |  | 
14 | COc1ccc2c(c1)C=C(c1c(C(=O)N3C4CCCC3COC4)cnn1C)Cn1c-2c(C2CCCCC2)c2ccc(C(=O)NS(=O)(=O)C3CCCC3)cc21 |  |  | 1 to 500 | 1 to 500 | 
15 | COc1ccc2c(c1)C=C(c1c(C(=O)N(CC3CCCO3)C(C)C)cnn1C)Cn1c-2c(C2CCCCC2)c2ccc(C(=O)NS(=O)(=O)C(C)C)cc21 (stereo not shown) | 1 to 500 | 1 to 500 |  |  | 
16 | COC[C@@H]1CN(C(=O)c2cnn(C)c2C2=Cc3cc(OC)ccc3-c3c(C4CCCCC4)c4ccc(C(=O)NS(=O)(=O)C5CCC5)cc4n3C2)CCO1 | 1 to 500 | 1 to 500 |  |  | 
17 | CCn1nc(C)c(C(=O)N2C[C@@H](C)O[C@@H](C)C2)c1C1=Cc2cc(OC)ccc2-c2c(C3CCCCC3)c3ccc(C(=O)NS(=O)(=O)C(C)C)cc3n2C1 [drawing 627] |  | 1 to 500 |  |  | 1 to 500
18 | COc1ccc2c(c1)C=C(c1c(C(=O)N3C[C@@H](C)O[C@@H](C)C3)cnn1C)Cn1c-2c(C2CCCCC2)c2ccc(C(=O)NS(=O)(=O)CC(C)C)cc21 | 1 to 500 | 1 to 500 |  |  | 
19 | COc1ccc2c(c1)C=C(c1c(C(=O)N3CCOCC3)c(C)nn1C)Cn1c-2c(C2CCCCC2)c2ccc(C(=O)NS(=O)(=O)CC(C)C)cc21 | 1 to 500 | 1 to 500 |  |  | 
20 | CCOC(=O)c1cnn(C)c1C1=Cc2cc(OC)ccc2-c2c(C3CCCCC3)c3ccc(C(=O)O)cc3n2C1 | 1 to 500 | 1 to 500 |  |  | 
21 | COc1ccc2c(c1)C=C(c1c(C(=O)N3C4CCC3CN(C)C4)cnn1CC(F)(F)F)Cn1c-2c(C2CCCCC2)c2ccc(C(=O)NS(=O)(=O)C(C)C)cc21 |  |  | 1 to 500 | 1 to 500 | 
22 | CCn1ncc(C(=O)N2CCOCC2)c1C1=Cc2cc(OC)ccc2-c2c(C3CCCCC3)c3ccc(C(=O)NS(=O)(=O)N(C)C)cc3n2C1 | 1 to 500 | 1 to 500 |  |  | 
23 | CCn1ncc(C(=O)N2C[C@@H]3C[C@H]2CO3)c1C1=Cc2cc(OC)ccc2-c2c(C3CCCCC3)c3ccc(C(=O)NS(=O)(=O)C(C)C)cc3n2C1 | 1 to 500 | 1 to 500 |  |  | 
24 | COc1ccc2c(c1)C=C(c1c(C(=O)N3CCCC3CN3CCCCC3)cnn1C)Cn1c-2c(C2CCCCC2)c2ccc(C(=O)NS(=O)(=O)N3CCOCC3)cc21 (stereo not shown) | 1 to 500 | 1 to 500 |  |  | 

Row | Compound | EC50 [1, 3] [nM] | IC50 [2, 4] [nM] | EC50 ([1]; Hepatitis C virus) [nM] | IC50 [2] [nM] | EC50 ([1]; HCV replicon cells, FRET or luciferase readout, read-out: EC50) [nM]
25 | COc1ccc2c(c1)C=C(c1c(C(=O)N3CCCC(N(C)C)C3)cnn1C)Cn1c-2c(C2CCCCC2)c2ccc(C(=O)NS(=O)(=O)C(C)C)cc21 (stereo not shown) | 1 to 500 | 1 to 500 |  |  | 
26 | COc1ccc2c(c1)C=C(c1c(C(=O)N3CCCC(N(C)C)C3)cnn1C)Cn1c-2c(C2CCCCC2)c2ccc(C(=O)NS(=O)(=O)N3CCOCC3)cc21 (stereo not shown) | 1 to 500 | 1 to 500 |  |  | 
27 | COc1ccc2c(c1)C=C(c1c(C(=O)N3C[C@@H](C)O[C@@H](C)C3)cnn1CC(F)(F)F)Cn1c-2c(C2CCCCC2)c2ccc(C(=O)NS(=O)(=O)C(C)C)cc21 | 1 to 500 | 1 to 500 |  |  | 
28 | COC[C@@H]1CN(C(=O)c2c(C(F)(F)F)nn(C)c2C2=Cc3cc(OC)ccc3-c3c(C4CCCCC4)c4ccc(C(=O)NS(=O)(=O)C(C)C)cc4n3C2)CCO1 | 1 to 500 | 1 to 500 |  |  | 
29 | COc1ccc2c(c1)C=C(c1c(C(=O)N3C4CCC3CC(C)(O)C4)cnn1CC(F)(F)F)Cn1c-2c(C2CCCCC2)c2ccc(C(=O)NS(=O)(=O)C(C)C)cc21 (stereo not shown) |  |  | 1 to 500 | 1 to 500 | 
30 | COCCN(C(=O)c1cnn(C)c1C1=Cc2cc(OC)ccc2-c2c(C3CCCCC3)c3ccc(C(=O)NS(=O)(=O)N4CCOCC4)cc3n2C1)C(C)C | 1 to 500 | 1 to 500 |  |  | 
31 | COc1ccc2c(c1)C=C(c1c(C(=O)N3C4CCC3CN(C)C4)cnn1C)Cn1c-2c(C2CCCCC2)c2ccc(C(=O)NS(=O)(=O)C3CCC3)cc21 |  |  | 1 to 500 | 1 to 500 | 
32 | COc1ccc2c(c1)C=C(c1c(C(=O)N3C4COCC3COC4)cnn1C)Cn1c-2c(C2CCCCC2)c2ccc(C(=O)NS(=O)(=O)C3CCCC3)cc21 |  |  | 1 to 500 | 1 to 500 | 
33 | CCC(C)S(=O)(=O)NC(=O)c1ccc2c(C3CCCCC3)c3n(c2c1)CC(c1c(C(=O)N2C[C@@H](C)O[C@@H](C)C2)cnn1C)=Cc1cc(OC)ccc1-3 (stereo partly shown) | 1 to 500 | 1 to 500 |  |  | 
34 | COc1ccc2c(c1)C=C(c1c(C(=O)N3C4C=C(C)CC3CC4)cnn1C(C)C)Cn1c-2c(C2CCCCC2)c2ccc(C(=O)NS(=O)(=O)C(C)C)cc21 (stereo not shown) |  |  | 1 to 500 | 1 to 500 | 
35 | COc1ccc2c(c1)C=C(c1c(C(=O)N3C4CCCC3COC4)cnn1CC(F)(F)F)Cn1c-2c(C2CCCCC2)c2ccc(C(=O)NS(=O)(=O)C(C)C)cc21 |  |  | 1 to 500 | 1 to 500 | 
36 | COc1ccc2c(c1)C=C(c1c(C(=O)N3[C@@H]4CC[C@H]3C[C@@](C)(O)C4)cnn1C)Cn1c-2c(C2CCCCC2)c2ccc(C(=O)NS(=O)(=O)N3CCOCC3)cc21 |  |  | 1 to 500 | 1 to 500 | 
37 | COc1ccc2c(c1)C=C(c1ccsc1C(=O)N1CCOCC1)Cn1c-2c(C2CCCCC2)c2ccc(C(=O)NS(=O)(=O)N(C)C)cc21 | 1 to 500 | 1 to 500 |  |  | 
38 | COC[C@@H]1CN(C(=O)c2cnn(C)c2C2=Cc3cc(OC)ccc3-c3c(C4CCCCC4)c4ccc(C(=O)NS(=O)(=O)C5CCCC5)cc4n3C2)CCO1 | 1 to 500 | 1 to 500 |  |  | 
39 | COc1ccc2c(c1)C=C(c1c(C(=O)N3CCCC4(CCNC4=O)C3)cnn1C)Cn1c-2c(C2CCCCC2)c2ccc(C(=O)NS(=O)(=O)N3CCOCC3)cc21 (stereo not shown) | 1 to 500 | 1 to 500 |  |  | 
40 | CCOC(=O)c1cnn(C)c1C1=Cc2cc(OC)ccc2-c2c(C3CCCCC3)c3ccc(C(=O)OC(C)(C)C)cc3n2C1 | 1 to 500 | > 40 |  |  | 
41 | CCOC(=O)c1cnn(C)c1C1=Cc2cc(OC)ccc2-c2c(C3CCCCC3)c3ccc(C(=O)NS(=O)(=O)C(C)C)cc3n2C1 | 1 to 500 | 1 to 500 |  |  | 
42 | COc1ccc2c(c1)C=C(c1c(C(=O)N3CCOC(CN(C)C)C3)cnn1C)Cn1c-2c(C2CCCCC2)c2ccc(C(=O)NS(=O)(=O)N3CCOCC3)cc21 (stereo not shown) | 1 to 500 | 1 to 500 |  |  | 
43 | CCC(C)S(=O)(=O)NC(=O)c1ccc2c(C3CCCCC3)c3n(c2c1)CC(c1c(C(=O)N2CCOC(COC)C2)cnn1C)=Cc1cc(OC)ccc1-3 (stereo not shown) | 1 to 500 | 1 to 500 |  |  | 
44 | CCN1C[C@H]2C[C@@H]1CN2C(=O)c1cnn(C(C)C)c1C1=Cc2cc(OC)ccc2-c2c(C3CCCCC3)c3ccc(C(=O)NS(=O)(=O)CC(C)C)cc3n2C1 | 1 to 500 | 1 to 500 |  |  | 
45 | CCCN1CCN(C(=O)c2ccn(C(C)C)c2C2=Cc3cc(OC)ccc3-c3c(C4CCCCC4)c4ccc(C(=O)NS(=O)(=O)C(C)C)cc4n3C2)CC1 | 1 to 500 | 1 to 500 |  |  | 
46 | COc1ccc2c(c1)C=C(c1c(C(=O)N3CCC(N(C)C)C3)cnn1C)Cn1c-2c(C2CCCCC2)c2ccc(C(=O)NS(=O)(=O)N3CCOCC3)cc21 (stereo not shown) | 1 to 500 | 1 to 500 |  |  | 
47 | COc1ccc2c(c1)C=C(c1c(C(=O)N3C4COCC3COC4)cnn1C(C)C)Cn1c-2c(C2CCCCC2)c2ccc(C(=O)NS(=O)(=O)CC(C)C)cc21 |  |  | 1 to 500 | 1 to 500 | 
